Reference: patent US20020088018A1, “Transgenic mice containing MAS orphan receptor gene disruptions” (priority 2000, published 2002)

Test system: mice (wild-type and MAS receptor gene homozygous mutant)
Assay: Metrazol administration test (metrazol dose testing, seizure susceptibility)
Type: in vivo, mouse
Details: for Dose (mg/kg body weight), Observable: T/C / Dose (mg/kg body weight), Observable: Death / Dose (mg/kg body weight), Observable: Twitch / Dose (mg/kg body weight), Observable: Extension: F2N1 mice; for Dose (mg/kg body weight), Observable: T/C: metrazol dose to T/C seizure; for Dose (mg/kg body weight), Observable: Death: metrazol dose to death; for Dose (mg/kg body weight), Observable: Twitch: metrazol dose to first twitch; for Dose (mg/kg body weight), Observable: Extension: metrazol dose to tonic extension
Method: A metrazol administration test can be used to screen animals for varying susceptibilities to seizures or similar events. For example, a 5 mg/ml solution of metrazol can be infused through the tail vein of a mouse at a rate of, e.g., approximately 0.375 ml/min. The infusion will cause all mice to experience seizures, followed by death. Those mice that enter the seizure stage the soonest are believed to be more prone to seizures.
The transgenic mice were analyzed for phenotypic changes. […] These characteristics response parameters are: (1) first twitch; (2) tonic/clonic seizure; (3) tonic extension, […]; and (4) death.

[1] = genotype −/− (MAS homozygous mutant)

SMILES: C1CCc2nnnn2CC1 [metrazol]
- Dose (mg/kg body weight), Observable: T/C (genotype +/+ (wild-type)): 37.94 mg/kg body weight
- Dose (mg/kg body weight), Observable: Death (genotype +/+ (wild-type)): 96.27 mg/kg body weight
- Dose (mg/kg body weight), Observable: Twitch (genotype +/+ (wild-type)): 25.59 mg/kg body weight
- Dose (mg/kg body weight), Observable: Extension (genotype +/+ (wild-type)): 75.60 mg/kg body weight
- Dose (mg/kg body weight), Observable: T/C [1]: 45.28 mg/kg body weight
- Dose (mg/kg body weight), Observable: Death [1]: 138.55 mg/kg body weight
- Dose (mg/kg body weight), Observable: Twitch [1]: 33.95 mg/kg body weight
- Dose (mg/kg body weight), Observable: Extension [1]: 115.89 mg/kg body weight
- response threshold to metrazol (homozygous mutants as compared to wild-type animals): increased
